Experimental data: US12128035B2, “Activating pyruvate kinase R” (Novo Nordisk Health Care AG, priority 2021, dated 2024)

Columns and labels:
Log D7.4 = type: physicochemical; conditions: pH 7.4
Text: [drawing 2] is a selective, orally bioavailable PKR Activating Compound that decreases 2,3-DPG, increases ATP, and has anti-sickling effects in disease models with a wide therapeutic margin relative to preclinical toxicity. Compound 1 is a potent activator of PKR and a multi-modal metabolic modulator of RBCs. Activation of PKR simultaneously reduces 2,3-DPG concentrations, which increases hemoglobin-oxygen affinity and decreases sickling, while also increasing intracellular ATP, which improves RBC health and reduces hemolysis, or RBC death. Compound 1 is a BCS class II compound with poor water solubility and high permeability.

sickle RBCs = assay: Phase 1: Lorrca Osmoscan in SCD patients; type: in vivo, human
Method: In this study, SAD/MAD cohorts are randomized (3 to 1) to receive Compound 1 or placebo (P). Compound 1 was evaluated first in 4 healthy SAD cohorts and 4 healthy MAD (14-day dosing period) cohorts. Based on the safety, and PK/PD profile from HS, Compound 1 is then evaluated in 1 SCD SAD cohort and 2 SCD MAD cohorts. Specifically, based on the safety and pharmacokinetic/pharmacodynamics (PK/PD) profile in healthy volunteer studies, Compound 1 is evaluated in patients (pts) with SCD, first in a single dose (SD or SAD) cohort and then in multiple-dose (MD or MAD) cohorts (14-day and 12-week). Safety assessments include AEs, vital signs, ECGs and laboratory parameters. PK/PD blood sampling was performed on Day 1 (SAD/MAD) and Day 14 (MAD) and up to 72 h after the last dose and at the end-of-study visit. PD parameters included 2,3-DPG, ATP, and p50 in all cohorts with additional PD studies (including oxygen scan) performed only in the SCD cohorts. PD parameters included 2,3-DPG, ATP, p50, RBC deformability with controlled deoxygenation and reoxygenation (Lorrca® oxygen scan) and varying osmolality (Lorrca® osmoscan)). To maintain study blind, pt identifiers were removed when needed.
Functional evaluation of RBCs was performed using Laser-Optical Rotational Red Cell Analyzer (Lorrca®) technology (RR Mechatronics, Zwaag, The Netherlands). Osmoscan was performed for healthy subjects, and both Oxygenscan and Osmoscan analyses were undertaken for the patients with SCD. In brief, the Oxygenscan allows for the measurement and visualisation of RBC elongation in shear stress in an oxygen gradient, during deoxygenation and re-oxygenation, expressed as the elongation index (EI). […] Evaluated Osmoscan parameters included: EImax; Omin (osmolality at ELmax; hypotonic region), which corresponds to the value of the hypotonic osmolality at which 50% of the cells hemolyse in an osmotic fragility assay and provides information on the initial surface-to-volume ratio of the RBCs; and Ohyper (osmolality corresponding to 50% of the EImax; hypertonic region), which correlates with the initial intracellular viscosity of the cell sample. […]
The effects of a single dose of Compound 1 (700 mg) versus placebo on oxygen scan, oxygen affinity (p50), and osmoscan in SCD patients were evaluated. […] In order to measure the impact of Compound 1 on this critical function, the effect of Compound 1 compared to placebo on the deformability of SCD RBCs across an osmolality gradient was evaluated. […]

## O=C([C@H](CO)c1ccccc1)N1CC2=C(C1)CN(S(=O)(=O)c1cnc3c(c1)OCCO3)C2 (single isomer, unassigned) [Compound 1]
Log D7.4
  Log D7.4: 1.09
Sickle RBCs; SCD single 700 mg, Post-dose (24 hours), median (range), pre-dose 0.483 (0.46, 0.57)
  EImax (Osmoscan): 0.478 (0.46, 0.57)
Sickle RBCs; SCD single 700 mg, Post-dose (24 hours), median (range), pre-dose 108 (105, 121)
  Omin (Osmoscan): 117 (106, 124)
Sickle RBCs; SCD single 700 mg, Post-dose (24 hours), median (range), pre-dose 380 (371, 399)
  Ohyper (Osmoscan): 400 (371, 412)
Sickle RBCs; SCD, after the single 700 mg dose
  time to return to baseline of Oxygenscan/Osmoscan effects: 3 to 7 days
